These results are taken from PMC10827914 (Cellular and Molecular Life Sciences: CMLS, 2024).

Experiment [1] has as its target T1, recombinant human CD13 (rCD13) (Homo sapiens, UniProt P15144).
T1 construct: consisting of the CD13 extracellular domain expressed in HEK-293 cells; His-tag; purchased Sino Biological 10051-H08H; host or cells: HEK-293 cells
Briefly: rCD13 enzyme inhibition assay, L-alanine-p-nitroanilide substrate. The experiment is classed as biochemical. As to conditions: Fig. 4B and 4E, one experiment in duplicate. As for the experimental part:
Recombinant CD13 (rCD13) enzyme activity and inhibition assays were performed as described previously using L-alanine-p-nitroanilide or L-alanine 7-amido-4-methylcoumarin as substrates in 60 mM Tris–HCl, pH 7.4, or 60 mM potassium phosphate buffer, pH 7.4. Mixtures containing peptides at various concentrations, rCD13 (0.2 µg/mL), and L-alanine-p-nitroanilide substrate (0.5 mM) in 60 mM potassium phosphate buffer, pH 7.4 (total volume, 0.1 ml) were prepared and left to react for 30 min at 37 °C. The products were then analyzed using a plate reader (iMark Microplate Absorbance Reader; Bio-Rad). Alternatively, the assay was performed using 0.1 mM L-alanine 7-amido-4-methylcoumarin in 60 mM Tris–HCl, pH 7.4, as a substrate. Fluorescence intensity of methylcoumarin was measured on an Infinite 200 PRO plate reader (Tecan) using the following settings: excitation wavelength: 341 nm; emission wavelength: 441 nm; excitation bandwidth: 9; emission bandwidth: 20 nm; gain: 109 manual; number of flashes: 25; integration time: 20 µs; lag time: 0 µs; settle time: 0 ms.
The IC50 of each inhibitor was calculated by non-linear regression analysis of inhibition data using GraphPad Prism Software (GraphPad Software, Version 9.00, San Diego, CA). Steady-state enzyme kinetic analyses were performed using various concentrations of L-alanine-p-nitroanilide (0–1.5 mM) and VGCARRYCS peptide (0–900 nM). The initial velocities (Vo) were calculated from the slopes of the first 5 min of reaction. The enzyme inhibitory constant (Ki) was calculated using the competitive enzyme inhibition model in GraphPad Prism Software.
A) VGCGRRYCSN and CSGIGSSGGC (control) peptides, at various concentrations, were mixed with rCD13 (0.2 µg/mL), L-alanine-p-nitroanilide substrate (0.5 mM), in 60 mM potassium phosphate buffer, pH 7.4. The mixtures were left to react for 30 min at 37° C; then the absorbance at 405 nm of each mixture was measured using an ELISA plate reader (Bio-Rad). The IC50 of each inhibitor was calculated by non-linear regression analysis of inhibition data using the GraphPad Prism Software (GraphPad Software, Version 9.00, San Diego, CA). The result of one experiment performed in duplicate is shown (mean ± SEM).

The subject of experiment [2] is membrane CD13 expressed by HUVEC. In words: Competitive binding of anti-CD13 mAb WM15 to HUVEC by flow cytometry. Details: species or system human. To be noted: Fig. 4C and 4D. As for the experimental part: HUVEC were seeded in 96-well U-bottom polystyrene microtiter plates at a density of 2 × 10^5 cells in 100 µL DPBS supplemented with 5% normal human serum (NHS) and mixed with a mixture of peptide G4 ranging from 0 to 10 µM and mAb WM15 (0 or 0.13 nM). The chromogranin A429-439 peptide fragment (CgA429-439) was used instead of G4 as a control. After 1 h of incubation at 4 °C, the cells were washed and resuspended in 100 µL of DPBS containing 5% NHS and 1 µg/mL of FITC-labeled goat anti-mouse IgG secondary antibody. Cells were subsequently incubated for 1 h at 4 °C, washed, and analyzed by flow cytometry. All flow cytometry data were collected on a CytoFLEX S flow cytometer (Beckman Coulter) and analyzed using FlowJo software 10 (BD BioScience).
Fig. 2 G4 recognizes soluble forms of CD13, with higher affinity and selectivity than bestatin, and the membrane forms expressed on the surface of HUVEC cells. A Inhibitory effects of G4 and bestatin on the enzymatic activities of different aminopeptidases (rCD13, APA, and APB). Various amounts of G4 or bestatin were incubated with rCD13 (0.2 µg/mL in 60 mM Tris–HCl pH 7.4), APA (0.2 µg/mL in 60 mM Tris–HCl pH 7.4, 50 mM calcium chloride, 200 mM sodium chloride) or APB (0.2 µg/mL in 60 mM Tris–HCl pH 7.4, 100 mM potassium chloride) and the corresponding substrates at 0.1 mM (L-alanine-7-amido-4-methylcoumarin for rCD13, L-glutamic acid γ-(7-amido-4-methylcoumarin) for APA, and L-arginine-7-amido-4-methylcoumarin for APB). The mixtures were incubated for 30 min at 37 °C, and the cleavage of each substrate was monitored by measuring the fluorescence of methylcoumarin (λex 341 nm; λem 441 nm) using an Infinite 200 PRO plate reader (Tecan). Three independent experiments were performed for each enzyme. […] Substrate cleavage by sCD13 dissociated from mAb WM15 was then monitored by measuring the absorbance at 405 nm in each well using a plate reader (Bio-Rad). […] After incubation for 60 min at 4 °C, the cells were washed and analyzed by flow cytometry. Data are expressed as the percentage of counts vs. fluorescence intensity units […]
A general note: In flow cytometry, cells or beads pass a laser one at a time.

In the next experiment the test system is HUVEC. In words: HUVEC cell adhesion assay on coated microtiter plates. In kind it is cell-based, human. To be noted: plates coated with 10 µg/mL, 4 × 10^5 HUVEC, 2.5 h, 37 °C, crystal violet, absorbance 540 nm. As for the experimental part:
The peptide VGCARRYCSGGSGGGSGK-biotin, with a biotin moiety linked to the ε-aminogroup of the Lys residue (ProteoGenix), was complexed with streptavidin (G4-streptavidin) or avidin (G4-avidin) by mixing it with a molar excess of streptavidin or avidin in DPBS (1:6 mol/mol), followed by incubation for 1 h at room temperature under mild stirring. To perform the cell adhesion assay, 96-well polyvinyl chloride microtiter plates were coated with G4-avidin or G4-streptavidin (10 µg/mL in DPBS, overnight, 4 °C). After blocking with 2% BSA in EBM-2 (45 min at room temperature), 4 × 10^5 HUVEC were seeded in Endothelial Cell Growth Basal Medium-2 (EBM-2, Cat. # 00190860, Lonza) and incubated for 2.5 h at 37 °C, 5% CO2. Unbound cells were removed by washing with EBM-2, and adherent cells were fixed with 3% paraformaldehyde and 2% sucrose in DPBS and stained with 0.5% crystal violet. The number of adherent cells was quantified by measuring the absorbance of the wells at 540 nm wavelength using a microplate reader.
Fig. 7 Adhesion of HUVEC cells to microtiter plates coated with G4-avidin or G4-streptavidin conjugates. Representative images of wells coated with 10 µg/mL of G4-avidin (A) or G4-streptavidin (B) complexes. Wells coated with avidin or streptavidin were used as negative controls. The absorbance of crystal violet-stained adherent cells is also shown. […]

T1 sequence (P15144 33-967 limits assumed): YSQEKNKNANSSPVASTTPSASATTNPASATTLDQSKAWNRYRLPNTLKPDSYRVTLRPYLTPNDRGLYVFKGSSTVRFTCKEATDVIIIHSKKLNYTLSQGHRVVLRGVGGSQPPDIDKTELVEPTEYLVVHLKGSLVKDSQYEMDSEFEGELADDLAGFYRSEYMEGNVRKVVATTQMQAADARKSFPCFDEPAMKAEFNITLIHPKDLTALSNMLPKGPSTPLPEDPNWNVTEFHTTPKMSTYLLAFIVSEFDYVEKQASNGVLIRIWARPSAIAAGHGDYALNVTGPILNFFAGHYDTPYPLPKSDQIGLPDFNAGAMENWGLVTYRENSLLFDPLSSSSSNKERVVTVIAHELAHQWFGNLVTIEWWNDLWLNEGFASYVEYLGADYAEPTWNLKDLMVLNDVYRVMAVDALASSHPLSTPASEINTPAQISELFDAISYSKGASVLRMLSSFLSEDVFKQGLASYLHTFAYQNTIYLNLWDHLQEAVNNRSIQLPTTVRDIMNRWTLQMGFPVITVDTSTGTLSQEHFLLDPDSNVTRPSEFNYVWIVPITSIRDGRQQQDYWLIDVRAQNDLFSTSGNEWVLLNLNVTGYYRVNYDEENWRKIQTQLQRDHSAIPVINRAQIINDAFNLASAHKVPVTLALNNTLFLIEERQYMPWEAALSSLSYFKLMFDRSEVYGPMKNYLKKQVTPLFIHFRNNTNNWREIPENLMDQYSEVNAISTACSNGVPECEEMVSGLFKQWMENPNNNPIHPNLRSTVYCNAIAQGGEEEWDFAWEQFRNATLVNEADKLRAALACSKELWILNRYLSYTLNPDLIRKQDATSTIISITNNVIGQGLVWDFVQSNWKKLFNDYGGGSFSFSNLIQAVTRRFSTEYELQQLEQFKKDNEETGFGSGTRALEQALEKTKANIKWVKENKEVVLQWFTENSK

Take “VGCARRYCSGGSGGGSGK-biotin [G4-avidin, …-biotin complexed with avidin]”: the “Inhibition of rCD13 enzymatic activity (in words)” value in experiment [1] is “could not inhibit the enzymatic activity of recombinant soluble CD13”. Besides, the “Competition of mAb WM15 binding to HUVEC (in words)” value in experiment [2] is listed as “competed the binding of mAb WM15 to endothelial cells”. Besides, the “Endothelial cell adhesion to coated plates (in words)” value in the experiment on HUVEC is “promoted endothelial cell adhesion”.
